In patent US10155727B2, “Pyrazoles” (Janssen Pharmaceuticals, Inc., priority 2014, dated 2018):
Where two headings read alike, the source gives them in different places. Each block holds one molecule with its values, some of them ahead of it.

Key:
rat NR1/NR2B receptor = rat NR1/NR2B receptor (Rattus norvegicus (Rat), UniProt P35439+Q00960); test: NR2B binding assay: inhibition of specific [3H]-Ifenprodil binding to the rat NR1/NR2B receptor; conditions: [3H]-Ifenprodil binding, rat brain membranes
rat NR1/NR2B receptor, sequence (Q00960 27-1482, other chains not shown): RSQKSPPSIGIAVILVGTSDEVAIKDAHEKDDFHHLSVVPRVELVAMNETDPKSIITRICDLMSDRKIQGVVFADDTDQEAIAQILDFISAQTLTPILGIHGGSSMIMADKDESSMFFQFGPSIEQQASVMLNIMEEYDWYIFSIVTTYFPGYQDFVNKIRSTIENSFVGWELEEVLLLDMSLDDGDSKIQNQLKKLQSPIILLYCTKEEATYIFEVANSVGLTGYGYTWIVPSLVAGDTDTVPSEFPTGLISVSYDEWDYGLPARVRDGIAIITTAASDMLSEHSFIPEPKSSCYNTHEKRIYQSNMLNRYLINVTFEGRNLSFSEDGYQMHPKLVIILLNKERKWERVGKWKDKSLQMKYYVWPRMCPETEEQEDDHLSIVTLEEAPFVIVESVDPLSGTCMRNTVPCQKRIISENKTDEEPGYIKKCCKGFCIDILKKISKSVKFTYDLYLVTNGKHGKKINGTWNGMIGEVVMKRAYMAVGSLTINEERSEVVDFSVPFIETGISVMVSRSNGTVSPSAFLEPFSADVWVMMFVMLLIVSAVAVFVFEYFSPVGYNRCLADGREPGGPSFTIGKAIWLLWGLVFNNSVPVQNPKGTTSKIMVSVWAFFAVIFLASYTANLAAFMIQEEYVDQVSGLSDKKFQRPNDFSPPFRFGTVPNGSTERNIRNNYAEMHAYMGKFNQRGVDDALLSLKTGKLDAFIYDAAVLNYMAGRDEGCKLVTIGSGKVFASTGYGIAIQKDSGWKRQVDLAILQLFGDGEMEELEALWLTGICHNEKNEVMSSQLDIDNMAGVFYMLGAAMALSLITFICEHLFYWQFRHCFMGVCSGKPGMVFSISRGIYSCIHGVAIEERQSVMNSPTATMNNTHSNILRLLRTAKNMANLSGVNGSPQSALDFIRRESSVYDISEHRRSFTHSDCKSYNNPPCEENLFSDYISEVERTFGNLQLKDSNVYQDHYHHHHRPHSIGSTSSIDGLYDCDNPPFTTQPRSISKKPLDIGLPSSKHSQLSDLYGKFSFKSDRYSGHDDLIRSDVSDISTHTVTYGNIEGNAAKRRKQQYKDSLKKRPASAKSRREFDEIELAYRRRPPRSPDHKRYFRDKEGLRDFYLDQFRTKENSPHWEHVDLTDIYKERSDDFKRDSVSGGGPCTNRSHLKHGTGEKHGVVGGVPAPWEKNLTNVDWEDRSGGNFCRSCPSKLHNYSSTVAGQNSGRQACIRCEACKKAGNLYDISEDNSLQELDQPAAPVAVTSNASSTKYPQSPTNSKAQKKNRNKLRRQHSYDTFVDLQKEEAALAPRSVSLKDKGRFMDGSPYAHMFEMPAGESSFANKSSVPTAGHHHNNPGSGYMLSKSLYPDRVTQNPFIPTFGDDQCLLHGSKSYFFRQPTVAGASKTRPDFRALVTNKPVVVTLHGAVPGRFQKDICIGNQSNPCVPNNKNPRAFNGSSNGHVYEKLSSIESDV

[1] = target: human NR1/NR2B ion channels (Homo sapiens (Human), UniProt Q05586+Q13224); test: HNR2BC: calcium influx assay on cloned human NR1/NR2B ion channels expressed in HEK cells; format: cell-based; conditions: HEK cells with hNR1/NR2B, 100 μM glutamate + 100 μM glycine, 3 parameter plot
human NR1/NR2B ion channels, sequence (Q13224 27-1484, other chains not shown): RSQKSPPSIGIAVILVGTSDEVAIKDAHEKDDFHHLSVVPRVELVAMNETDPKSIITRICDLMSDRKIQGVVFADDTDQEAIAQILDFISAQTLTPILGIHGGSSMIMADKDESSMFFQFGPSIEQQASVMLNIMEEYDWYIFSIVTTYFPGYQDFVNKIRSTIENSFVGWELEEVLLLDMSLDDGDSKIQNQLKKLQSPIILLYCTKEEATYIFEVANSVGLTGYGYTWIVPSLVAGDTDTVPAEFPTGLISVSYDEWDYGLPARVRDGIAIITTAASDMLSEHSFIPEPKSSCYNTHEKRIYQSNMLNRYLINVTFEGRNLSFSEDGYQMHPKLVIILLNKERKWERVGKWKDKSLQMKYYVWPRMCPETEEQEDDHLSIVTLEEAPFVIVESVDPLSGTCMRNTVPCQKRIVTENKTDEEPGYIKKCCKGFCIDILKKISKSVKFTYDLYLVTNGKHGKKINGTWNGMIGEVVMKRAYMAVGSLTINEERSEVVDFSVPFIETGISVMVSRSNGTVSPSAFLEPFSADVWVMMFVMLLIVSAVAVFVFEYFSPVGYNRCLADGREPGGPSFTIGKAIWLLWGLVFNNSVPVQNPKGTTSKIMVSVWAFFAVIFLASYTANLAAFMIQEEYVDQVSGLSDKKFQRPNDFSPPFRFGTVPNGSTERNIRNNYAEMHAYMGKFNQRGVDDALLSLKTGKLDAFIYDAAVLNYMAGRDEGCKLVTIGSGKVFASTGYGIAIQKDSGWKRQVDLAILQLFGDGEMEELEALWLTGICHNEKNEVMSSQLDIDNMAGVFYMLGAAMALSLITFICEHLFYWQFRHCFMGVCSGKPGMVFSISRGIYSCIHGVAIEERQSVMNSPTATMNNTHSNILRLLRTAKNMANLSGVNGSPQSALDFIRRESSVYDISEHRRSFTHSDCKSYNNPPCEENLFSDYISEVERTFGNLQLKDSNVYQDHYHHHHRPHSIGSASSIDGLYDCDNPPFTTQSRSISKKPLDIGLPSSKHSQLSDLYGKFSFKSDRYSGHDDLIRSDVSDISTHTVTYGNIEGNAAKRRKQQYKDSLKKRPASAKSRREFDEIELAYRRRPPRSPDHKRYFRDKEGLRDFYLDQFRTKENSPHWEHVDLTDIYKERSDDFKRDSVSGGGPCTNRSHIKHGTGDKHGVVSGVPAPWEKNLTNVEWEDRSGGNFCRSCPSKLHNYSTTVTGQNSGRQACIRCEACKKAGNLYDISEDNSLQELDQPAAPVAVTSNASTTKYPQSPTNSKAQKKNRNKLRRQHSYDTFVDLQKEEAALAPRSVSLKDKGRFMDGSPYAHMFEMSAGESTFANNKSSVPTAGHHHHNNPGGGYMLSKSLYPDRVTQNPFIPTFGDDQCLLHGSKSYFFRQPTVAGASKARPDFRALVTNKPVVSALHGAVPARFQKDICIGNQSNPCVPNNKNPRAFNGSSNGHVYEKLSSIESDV
Procedure: HNR2BC: Effects of Test Articles on Cloned Human NR1/NR2B Ion Channels Expressed in Mammalian Cells
The ability of test compounds to act as an antagonist of NR1/NR2B was evaluated with a calcium influx assay (Calcium 5 Assay Kit, Molecular Devices).
For the antagonist assessment, NR1/NR2B was activated with the positive control agonist (Mg^2+-free HBPS+100 μM glutamic acid+100 μM glycine).
A HEK cell line, stable transfected with hNR1/NR2B was used. This tetracycline inducible cell line is transfected with GRIN1 (GeneBank accession number NM_007327.2) and GRIN2B (GeneBank accession number NM_000834.3.). The cells were cultured in cell culture flasks with DMEM/F12 supplemented with 10% FCS, 1% PenStrep and a selection of additional antibiotics.
Forty-Eight (48) hours before the assay the cells were plated into 96-well black well, flat clear bottom microtiter plates at a density of 50000 cells/well. Twenty-Four (24) hours later the receptor expression was induced by the addition of 1 μg/ml tetracycline in the presence of 2 mM ketamine and 200 μM 7-CKA. After 24 h of receptor induction the plates were used for the assay.
The medium was removed and the cells were loaded with 200 μl loading buffer (Molecular Devices) in Mg2+-free HBPS containing 100 μM 7-CKA at 37° C. for one (1) hour.
The test compounds were then solubilized in 100% DMSO and diluted to yield eight (8) different concentrations in 100% DMSO. A 96 well drug plate was prepared by diluting with water and glycine/glutamate to a 5-fold of final test concentration. Fluorescence intensity of the cells in the plate was measured in a FlexStation using an excitation wavelength of 485 nm and an emission wavelength of 525 nm. Twenty (20) seconds after starting the recordings the compounds together with the agonists glycine (100 μM) and glutamate (100 μM) were added into the wells and the fluorescence measured for ninety (90) seconds in summary.
The IC50 values provided in the paragraph below were determined using a 3 parameter plot.

hERG receptor = hERG receptor (Homo sapiens (Human), UniProt Q12809); test: HERGBD: inhibition of specific [3H]-Dofetilide binding to the hERG receptor
hERG receptor, sequence (Q12809 whole entry): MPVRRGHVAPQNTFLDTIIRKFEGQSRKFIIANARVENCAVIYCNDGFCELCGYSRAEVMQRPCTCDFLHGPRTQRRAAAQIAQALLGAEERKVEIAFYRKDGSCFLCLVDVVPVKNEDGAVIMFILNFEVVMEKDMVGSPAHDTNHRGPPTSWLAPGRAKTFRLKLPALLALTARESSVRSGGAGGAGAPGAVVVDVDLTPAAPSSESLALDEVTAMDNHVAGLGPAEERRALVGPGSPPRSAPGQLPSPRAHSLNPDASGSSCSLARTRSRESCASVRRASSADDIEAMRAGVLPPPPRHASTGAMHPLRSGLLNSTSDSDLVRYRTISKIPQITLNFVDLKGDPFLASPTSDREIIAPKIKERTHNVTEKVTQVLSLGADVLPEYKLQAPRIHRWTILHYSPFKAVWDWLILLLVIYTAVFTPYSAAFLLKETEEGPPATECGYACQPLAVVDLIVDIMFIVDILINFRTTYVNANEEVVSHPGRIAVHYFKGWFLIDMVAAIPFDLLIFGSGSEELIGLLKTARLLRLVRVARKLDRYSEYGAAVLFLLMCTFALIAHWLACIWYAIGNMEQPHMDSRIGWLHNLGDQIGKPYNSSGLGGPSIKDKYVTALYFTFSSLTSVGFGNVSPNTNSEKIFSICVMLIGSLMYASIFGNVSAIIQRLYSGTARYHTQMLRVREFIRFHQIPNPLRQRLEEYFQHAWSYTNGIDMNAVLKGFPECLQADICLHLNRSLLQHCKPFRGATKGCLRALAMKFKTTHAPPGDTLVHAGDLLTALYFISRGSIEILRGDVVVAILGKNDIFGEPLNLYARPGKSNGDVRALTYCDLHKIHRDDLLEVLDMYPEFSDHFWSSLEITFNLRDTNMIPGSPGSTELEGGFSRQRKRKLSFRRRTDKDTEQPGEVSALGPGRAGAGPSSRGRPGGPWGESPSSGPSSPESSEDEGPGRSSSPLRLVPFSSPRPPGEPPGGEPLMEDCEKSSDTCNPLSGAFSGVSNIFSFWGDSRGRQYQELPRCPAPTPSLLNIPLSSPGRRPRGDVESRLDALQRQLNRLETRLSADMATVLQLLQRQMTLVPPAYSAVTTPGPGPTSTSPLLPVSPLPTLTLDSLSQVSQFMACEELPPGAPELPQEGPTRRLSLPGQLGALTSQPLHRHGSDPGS

mice = test: Forced swim test in mice; format: in vivo; conditions: p.o. 30 minutes before the test, male NMRI mice
Procedure: The compounds of the invention show significant antidepressive effects in the forced swim test in mice, an animal model of depression at doses of 100 mg/kg or below.
The method, which detects antidepressant activity, follows that described by Porsolt et al (Arch. Int. Pharmacodyn., 229, 327-336, 1977), which is incorporated by reference herein in its entirety.
Mice forced to swim in a situation from which they cannot escape rapidly become immobile. Antidepressants decrease the duration of immobility.
Male NMRI mice (Janvier, France), weighing 20-30 g, were individually placed in a cylinder (height=24 cm; diameter=13 cm) containing 10 cm water (22° C.) from which they cannot escape.
The mice were placed in the water for 6 minutes and the duration of immobility during the last 4 minutes was measured. The latency to the first bout of immobility was also recorded starting from the beginning of the test. 10 mice were studied per group. The test substance was administered p.o. 30 minutes before the test and compared with vehicle control group. The test was performed blind.

[2] = [3H]-Dofetilide binding, membranes of HEK cells with human ERG receptor, read-out: IC50

SMILES: Cc1[nH]ncc1Cn1cc(-c2ccc(F)c(C(F)F)c2)cn1 [Example 42, 4-[3-(Difluoromethyl)-4-fluoro-phenyl]-1-[(5-methyl-1H-pyrazol-4-yl)methyl]pyrazole]
IC50 (rat NR1/NR2B receptor): 0.202 µM
IC50 [1]: 2.3 µM
IC50 (hERG receptor): 71.6 µM

SMILES: CCc1c[nH]nc1Cn1cc(-c2ccc(F)c(OC(F)F)c2)cn1 [Example 91, 3-[[4-[3-(difluoromethoxy)-4-fluoro-phenyl]pyrazol-1-yl]methyl]-4-ethyl-1H-pyrazole Succinate]
IC50 (rat NR1/NR2B receptor): 0.0438 µM
IC50 [1]: 1.25 µM
IC50 (hERG receptor): 48.9 µM

SMILES: Cn1ccc(Cn2cc(-c3ccc(Cl)cc3)cn2)n1 [Example 75, 3-[[4-(4-Chlorophenyl)pyrazol-1-yl]methyl]-1-methyl-pyrazole]
IC50 (rat NR1/NR2B receptor): 3.04 µM
IC50 [1]: 33.8 µM
IC50 (hERG receptor): 131 µM

SMILES: CCCc1cc(Cn2cc(-c3ccc(F)c(C(F)F)c3)cn2)n[nH]1 [Example 41, 3-[[4-[3-(Difluoromethyl)-4-fluoro-phenyl]pyrazol-1-yl]methyl]-5-propyl-1H-pyrazole]
IC50 (rat NR1/NR2B receptor): 0.114 µM
IC50 [1]: 59.7 µM
IC50 (hERG receptor): 16 µM

SMILES: CC(F)(F)c1cc(-c2cnn(Cc3cc[nH]n3)c2)ccc1F [Example 44, 4-[3-(1,1-difluoroethyl)-4-fluoro-phenyl]-1-(1H-pyrazol-3-ylmethyl)pyrazole Succinate]
IC50 (rat NR1/NR2B receptor): 0.0171 µM
IC50 [1]: 0.53 µM
IC50 (hERG receptor): > 100 µM

IC50 [1]: 0.37 µM
SMILES: Fc1ccc(-c2cnn(Cc3cc[nH]n3)c2)cc1OC(F)F [Example 18, 4-[3-(difluoromethoxy)-4-fluoro-phenyl]-1-(1H-pyrazol-3-ylmethyl) pyrazole]
Minimum effective dose (mice): 10 mg/kg

IC50 [1]: 2.46 µM
SMILES: Cn1ccc(Cn2cc(-c3ccc(Cl)c(OC(F)F)c3)cn2)n1 [Example 2, 3-[[4-[4-Chloro-3-(difluoromethoxy)phenyl]pyrazol-1-yl]methyl]-1-methyl-pyrazole]
Minimum effective dose (mice): 30 mg/kg

SMILES: Cc1cc(Cn2cc(-c3ccc(F)c(C(F)F)c3)cn2)[nH]n1 [Example 39, 4-[3-(Difluoromethyl)-4-fluoro-phenyl]-1-[(3-methyl-1H-pyrazol-5-yl)methyl]pyrazole]
IC50 (rat NR1/NR2B receptor): 0.102 µM
IC50 [1]: 2.4 µM
IC50 (hERG receptor): 90.2 µM

SMILES: FC(F)Oc1cc(-c2cnn(Cc3cn[nH]c3)c2)ccc1Cl [Example 7, 4-[4-Chloro-3-(difluoromethoxy)phenyl]-1-(1H-pyrazol-4-ylmethyl)pyrazole]
IC50 (rat NR1/NR2B receptor): 0.00823 µM
IC50 [1]: 0.35 µM
IC50 (hERG receptor): 52.6 µM

SMILES: Cc1[nH]ncc1Cn1cc(-c2ccc(Cl)c(OC(F)F)c2)cn1 [Example 16, 4-[4-Chloro-3-(difluoromethoxy)phenyl]-1-[(5-methyl-1H-pyrazol-4-yl)methyl]pyrazole]
IC50 (rat NR1/NR2B receptor): 0.0411 µM
IC50 [1]: 2.15 µM
IC50 (hERG receptor): 64.7 µM

SMILES: CCc1cc(Cn2cc(-c3ccc(Cl)c(OC(F)F)c3)cn2)n[nH]1 [Example 14, 3-[[4-[4-Chloro-3-(difluoromethoxy)phenyl]pyrazol-1-yl]methyl]-5-ethyl-1H-pyrazole]
IC50 (rat NR1/NR2B receptor): 0.0762 µM
IC50 [1]: > 10 µM
IC50 (hERG receptor; [2]): 16.1 µM

SMILES: CCc1[nH]ncc1Cn1cc(-c2ccc(F)c(C(F)F)c2)cn1 [Example 43, 4-[3-(Difluoromethyl)-4-fluoro-phenyl]-1-[(5-ethyl-1H-pyrazol-4-yl)methyl]pyrazole]
IC50 (rat NR1/NR2B receptor): 0.134 µM
IC50 [1]: 2.66 µM
IC50 (hERG receptor): 57.4 µM

SMILES: CCc1c[nH]nc1Cn1cc(-c2ccc(F)c(C(F)F)c2)cn1 [Example 92, 3-[[4-[3-(difluoromethyl)-4-fluoro-phenyl]pyrazol-1-yl]methyl]-4-ethyl-1H-pyrazole]
IC50 (rat NR1/NR2B receptor): 0.0712 µM
IC50 [1]: 11.9 µM
IC50 (hERG receptor; [2]): 27.4 µM

SMILES: Cn1ccc(Cn2cc(-c3ccc(F)c(C(F)F)c3)cn2)n1 [Example 31, 3-[[4-[3-(difluoromethyl)-4-fluoro-phenyl]pyrazol-1-yl]methyl]-1-methyl-pyrazole Succinate]
IC50 (rat NR1/NR2B receptor): 0.264 µM
IC50 [1]: 7.77 µM
IC50 (hERG receptor): 19.7 µM

SMILES: Cc1n[nH]c(C)c1Cn1cc(-c2ccc(Cl)c(OC(F)F)c2)cn1 [Example 88, 4-[[4-(3-difluoromethoxy-4-chloro-phenyl)pyrazol-1-yl]methyl]-3,5-dimethyl-1H-pyrazole]
IC50 (rat NR1/NR2B receptor): 0.152 µM
IC50 [1]: > 10 µM
IC50 (hERG receptor): 43.2 µM

SMILES: Cc1cc(Cn2cc(-c3ccc(Cl)cc3)cn2)n(C)n1 [Example 74, 5-[[4-(4-Chlorophenyl)pyrazol-1-yl]methyl]-1,3-dimethyl-pyrazole]
IC50 (rat NR1/NR2B receptor): 6.06 µM
IC50 [1]: 51 µM
IC50 (hERG receptor): > 100 µM

SMILES: CCc1cc(Cn2cc(-c3ccc(F)c(C(F)F)c3)cn2)n[nH]1 [Example 40, 3-[[4-[3-(Difluoromethyl)-4-fluoro-phenyl]pyrazol-1-yl]methyl]-5-ethyl-1H-pyrazole]
IC50 (rat NR1/NR2B receptor): 0.047 µM
IC50 [1]: 3.3 µM
IC50 (hERG receptor): 23.3 µM
